Laboratory results from BindingDB's records for doi:10.1021/jm00160a020 (1986).

Target: Platelet-activating factor receptor (Oryctolagus cuniculus)
Test: Inhibition of PAF receptor binding to rabbit platelet plasma membranes

IC50 [nM] | SMILES
> 3000 | COc1ccc(C2CC[C@H](c3ccc(OC)c(OC)c3)O2)cc1OC (some centres not stated)
500 | COc1ccc([C@H]2CC[C@H](c3ccc(OC)c(OC)c3)O2)cc1OC
